{"source": "patent US20250002526A1", "about": "“PHARMACEUTICAL COMPOSITION HAVING ANTI-CANCER IMMUNOSTIMULATING EFFECT AND/OR IMMUNE CHECKPOINT INHIBITION POTENTIATING EFFECT” (KYUSHU UNIVERSITY, NATIONAL UNIVERSITY CORPORATION, priority 2021, published 2025)", "key": {"[1]": {"system": "SULT2B1b-mediated CS production in E0771-SULT cells", "experiment": "CS production inhibitory effect in E0771-SULT cells (LC/MS/MS quantification of CS)", "assay_type": "cell-based, mouse", "details": "Mus musculus; for activity at 10 µM: relative to control (100%)", "method_in_brief": "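Mouse E0771 breast cancer cells expressing SULT2B1b, seeded at 5×10^5 cells/well and cultured 24 h with or without test compound. CS extracted with deuterated internal standards and quantified by LC/MS/MS (ESI, MRM) against calibration curves. Values are % of CS production in untreated cells.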"}, "[2]": {"system": "E.G7-OVA-SULT cells", "experiment": "In vivo tumor growth of E.G7-OVA-SULT cells with OTI T cell transfer", "design": "species or system mouse", "details": "activated OTI T cells i.v. day 10, cholenoic acid oral days 13, 14 and 15", "protocol": "In T cell transfer experiment, activated OTII CD4^+ T cells (2×10^6) and OTI CD8^+ T cells (5×10^5) were intravenously injected into tumor-bearing mice (see experimental results (4)).\nCholenoic acid was suspended in 0.5% (w/v) methylcellulose 400 solution (FUJIFILM Wako Pure Chemical Corporation) at a proportion of 50 mg/ml, and a 200-μl portion (10 mg) of the suspension was orally administered to mice (see experimental results (6)). To examine the effect on the tumor infiltration of OTII cells or OTI T cells, 5 mg of cholenoic acid was orally administered three times at intervals of 6 hours in 2 days before the assay.\nCD4^+ T cells or CD8^+ T cells were magnetically selected from the spleen and peripheral lymph nodes of OTII and OTI TCR transgenic mice with Dynabeads mouse CD4 (Invitrogen), and then treated with DETACHaBEAD™ mouse CD4 (Invitrogen) or separated with a CD8a^+ T Cell Isolation Kit (Miltenyi Biotec). […]\nThe growth of tumors was monitored by measuring the vertical diameters of each tumor with a caliper twice a week and calculating the tumor volumes from the following expression."}}, "note": "“Also recorded” adds a separate entry of the source. Where two headings read alike, the source gives them in different places."}
{"smiles": "C[C@H](CCC(=O)O)[C@H]1CC[C@H]2[C@@H]3CC=C4C[C@@H](O)CC[C@]4(C)[C@H]3CC[C@]12C", "note": "[Compound 1, (R)-4-((3S,8S,9S,10R,13R,14S,17R)-3-hydroxy-10,13-dimethyl-2,3,4,7,8,9,10,11,12,13,14,15,16,17-tetradecahydro-1H-cyclopenta[a]phenanthren-17-yl)pentanoic acid]", "values": [{"measurement": "activity at 10 µM", "setting": "[1]; 24 h, read-out: CS production % activity at 10 μM, E0771-SULT cells, 24 hours, test compound 10 μM (Table 1)", "result": 35.8, "unit": "%"}, {"measurement": "activity at 10 µM", "setting": "[1]; 24 h, read-out: CS production % activity at 10 μM, E0771-SULT cells, 24 hours, third concentration column of Table 1, head again printed 10 μM", "result": 47.1, "unit": "%"}, {"measurement": "activity at 20 µM", "setting": "[1]; 24 h, read-out: CS production % activity at 20 μM, E0771-SULT cells, 24 hours, test compound 20 μM, relative to control without compound (100%)", "result": 30.8, "unit": "%"}, {"measurement": "IC50", "setting": "[1]; read-out: IC50 value (CS production)", "result": 5.8, "unit": "µM"}, {"measurement": "growth of E.G7-OVA-SULT cells / anti-tumor immunity of OTI T cells", "setting": "[2]", "result": "recovery of the effect of OTII cell or OTI T cell transplantation; also recorded: the growth of E.G7-OVA-SULT cells was suppressed"}]}
